Experimental data as given in patent publication US6737383B1, “Herbicidal oxadiazolidines” (priority 1999, dated 2004).

Columns and labels:
smallflower flatsedge = assay: Test B flood test smallflower flatsedge; format: in vivo, Cyperus difformis
Method in brief: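 Each value is a visual injury score relative to controls, with 10 meaning complete control and 0 no effect. Evaluation took place twelve to sixteen days after the 2-leaf-stage plants were treated and kept in the greenhouse.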

crabgrass = assay: Test B pre/postemergence crabgrass; format: in vivo, Digitaria sanguinalis
Method in brief: (§1)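 Test chemicals in a non-phytotoxic solvent mixture with surfactant were sprayed preemergence onto planted seeds and postemergence onto plants 2 to 18 cm tall (1- to 4-leaf stage). After twelve to sixteen days in a greenhouse, injury was visually rated against untreated controls from 0 (no effect) to 10 (complete control).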

blackgrass = assay: Test E blackgrass; format: in vivo, Alopecurus myosuroides; details: Preemergence
wild oat [1] = assay: Test E wild oat; format: in vivo, Avena fatua; details: Preemergence
Italian ryegrass = assay: Test E Italian ryegrass; format: in vivo, Lolium multiflorum; details: Preemergence
winter wheat [2] = assay: Test E winter wheat; format: in vivo, Triticum aestivum; details: Preemergence
soybean = assay: Test B pre/postemergence soybean; format: in vivo, Glycine max
Method in brief: as §1

wheat = assay: Test B pre/postemergence wheat; format: in vivo, Triticum aestivum
Method in brief: as §1

winter wheat [3] = assay: Test E winter wheat; format: in vivo, Triticum aestivum; details: Postemergence, 0 to 100 scale
Method in brief: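 Visually scored herbicidal effect relative to untreated plants, taken ~21 to 28 days post-application; compound in solvent with surfactant; postemergence sprays at the 1- to 4-leaf stage.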

wild oat [4] = assay: Test B pre/postemergence wild oat; format: in vivo, Avena fatua
Method in brief: as §1

winter barley = assay: Test E winter barley; format: in vivo, Hordeum vulgare; details: Preemergence
green foxtail = assay: Test E green foxtail; format: in vivo, Setaria viridis; details: Preemergence
[5] = Rate 62 g/ha, headed Pre-emergence (flood test species), scale 0 to 10 (0 no effect, 10 complete control)
[6] = Rate 125 g/ha, Pre-emergence, flood test species, scale 0 to 10 where 0 is no effect and 10 is complete control
[7] = Rate 250 g/ha, Pre-emergence, flood-test species, scale 0 to 10, 0 is no effect, 10 is complete control
[8] = Rate 500 g/ha, Pre-emergence, flood test species, scale 0 to 10 (0 no effect, 10 complete control)
[9] = Preemergence, Rate 62 g/ha, scale of 0 to 10 where 0 is no effect and 10 is complete control
[10] = Preemergence, Rate 125 g/ha, 0 is no effect, 10 is complete control
[11] = Preemergence, Rate 250 g/ha, scale 0 to 10, 0 is no effect, 10 is complete control
[12] = Preemergence, Rate 500 g/ha, scale 0 to 10 (0 no effect, 10 complete control)
[13] = Rate 62 g/ha, Postemergence, scale of 0 to 10 where 0 is no effect and 10 is complete control
[14] = Rate 125 g/ha, Postemergence, scale 0 to 10
[15] = Rate 500 g/ha, Postemergence, scale 0 to 10
[16] = Rate 125 g/ha, 0 to 100 scale (0 no effect, 100 complete control)
[17] = Rate 500 g/ha, 0 to 100 scale where 0 is no effect and 100 is complete control
[18] = Preemergence, Rate 250 g/ha, scale of 0 to 10 where 0 is no effect and 10 is complete control
[19] = Preemergence, Rate 500 g/ha, scale of 0 to 10 where 0 is no effect and 10 is complete control
[20] = Rate 62 g/ha, Postemergence, scale 0 to 10 (0 no effect, 10 complete control)
[21] = Rate 125 g/ha, Postemergence, scale of 0 to 10 where 0 is no effect and 10 is complete control
[22] = Rate 250 g/ha, Postemergence, scale of 0 to 10 where 0 is no effect and 10 is complete control
[23] = Rate 62 g/ha, 0 to 100 scale, 0 no effect, 100 complete control

Cc1nc(C)c(Cn2c(=O)on(C(=O)N(c3ccc(F)cc3)C(C)C)c2=O)s1 [Compound 192]
2: Crabgrass plant response rating (crabgrass; [9]) | Crabgrass plant response rating (crabgrass; [15]) | Soybean plant response rating (soybean; [11]) | Soybean plant response rating (soybean; [12])
55: Plant response rating, Wild oat (wild oat [1]; [17])
7: Crabgrass plant response rating (crabgrass; [11]) | Wild oats plant response rating (wild oat [4]; [12])
6: Crabgrass plant response rating (0 to 10 scale) (crabgrass; [10])
1: Crabgrass plant response rating (crabgrass; [13]) | Crabgrass plant response rating (crabgrass; [14]) | Plant response rating (0 to 10; 0 is no effect, 10 is complete control), Crabgrass (crabgrass; Rate 250 g/ha, Postemergence)
30: Plant response rating, Wild oat (wild oat [1]; [16]) | Plant response rating, Wheat (winter) (winter wheat [3]; Rate 125 g/ha) | Plant response rating, Barley (winter) (winter barley; [17])
3: Soybean plant response rating (soybean; [13]) | Soybean plant response rating (soybean; [14]) | Plant response rating (0 to 10; 0 is no effect, 10 is complete control), Soybean (soybean; Rate 250 g/ha, Postemergence) | Soybean plant response rating (soybean; [15])
65: Plant response rating, Green foxtail (green foxtail; [17])
5: Wild oats plant response rating (wild oat [4]; [11])
10: Plant response rating, Wheat (winter) (winter wheat [2]; [16])
40: Plant response rating, Blackgrass (blackgrass; [16]) | Plant response rating, Wheat (winter) (winter wheat [2]; [17])
20: Plant response rating, I. Ryegrass (Italian ryegrass; [16]) | Plant response rating, Barley (winter) (winter barley; [16])
0: S. Flatsedge plant response rating (smallflower flatsedge; [5]) | S. Flatsedge plant response rating (smallflower flatsedge; [6]) | S. Flatsedge plant response rating (smallflower flatsedge; [7]) | S. Flatsedge plant response rating (smallflower flatsedge; [8]) | Soybean plant response rating (soybean; [9]) | Soybean plant response rating (0 to 10 scale) (soybean; [10]) | Wheat plant response rating (wheat; [9]) | Wheat plant response rating (wheat; [11]) | Wheat plant response rating (wheat; [12]) | Wheat plant response rating (wheat; [13]) | Wheat plant response rating (wheat; [14]) | Plant response rating (0 to 10; 0 is no effect, 10 is complete control), Wheat (wheat; Rate 250 g/ha, Postemergence) | Wild oats plant response rating (wild oat [4]; [9]) | Wild oats plant response rating (wild oat [4]; [13]) | Wild oats plant response rating (wild oat [4]; [14]) | Plant response rating (0 to 10; 0 is no effect, 10 is complete control), Wild oats (wild oat [4]; Rate 250 g/ha, Postemergence)
60: Plant response rating, I. Ryegrass (Italian ryegrass; [17])
50: Plant response rating, Blackgrass (blackgrass; [17]) | Plant response rating, Wheat (winter) (winter wheat [3]; Rate 500 g/ha, 0 is no effect, 100 is complete control) | Plant response rating, Green foxtail (green foxtail; [16])
9: Crabgrass plant response rating (crabgrass; [12])

CC(C)N(C(=O)n1oc(=O)n(C2CCOCC2)c1=O)c1ccc(F)cc1 [Compound 310]
75: Plant response rating, Wheat (winter) (winter wheat [3]; Rate 62 g/ha)
100: Plant response rating, Green foxtail (green foxtail; [23]) | Plant response rating, Green foxtail (green foxtail; [16]) | Plant response rating, Green foxtail (green foxtail; Rate 250 g/ha, 0 to 100 scale)
0: S. Flatsedge plant response rating (smallflower flatsedge; Pre-emergence, Rate 1000 g/ha, scale 0 to 10 (0 no effect, 10 complete control)) | S. Flatsedge plant response rating (smallflower flatsedge; [5]) | S. Flatsedge plant response rating (smallflower flatsedge; [6]) | S. Flatsedge plant response rating (smallflower flatsedge; [7]) | Soybean plant response rating (soybean; [9]) | Soybean plant response rating (0 to 10 scale) (soybean; Preemergence, Rate 125 g/ha)
80: Plant response rating, Wheat (winter) (winter wheat [3]; Rate 125 g/ha, 0 is no effect, 100 is complete control) | Plant response rating, Wheat (winter) (winter wheat [3]; Rate 250 g/ha, 0 is no effect, 100 is complete control)
70: Plant response rating, Wild oat (wild oat [1]; [23]) | Plant response rating, Wild oat (wild oat [1]; Rate 250 g/ha, 0 to 100 scale) | Plant response rating, I. Ryegrass (Italian ryegrass; [23]) | Plant response rating, I. Ryegrass (Italian ryegrass; [16]) | Plant response rating, I. Ryegrass (Italian ryegrass; Rate 250 g/ha, 0 to 100 scale) | Plant response rating, Wheat (winter) (winter wheat [2]; Rate 250 g/ha, 0 to 100 scale) | Plant response rating, Barley (winter) (winter barley; Rate 250 g/ha, 0 to 100 scale, 0 no effect, 100 complete control)
7: Crabgrass plant response rating (crabgrass; [18]) | Crabgrass plant response rating (crabgrass; [19]) | Wheat plant response rating (wheat; [19])
40: Plant response rating, Wheat (winter) (winter wheat [2]; [16])
4: Soybean plant response rating (soybean; [20]) | Soybean plant response rating (soybean; [21]) | Plant response rating, Soybean (soybean; [22]) | Wheat plant response rating (wheat; [20]) | Wheat plant response rating (wheat; [21])
60: Plant response rating, Wheat (winter) (winter wheat [2]; [23]) | Plant response rating, Barley (winter) (winter barley; [16])
2: Soybean plant response rating (soybean; [18]) | Wheat plant response rating (wheat; [9]) | Wheat plant response rating (0 to 10 scale) (wheat; Preemergence, Rate 125 g/ha)
3: S. Flatsedge plant response rating (smallflower flatsedge; [8]) | Wild oats plant response rating (wild oat [4]; [20]) | Wild oats plant response rating (wild oat [4]; [21]) | Plant response rating, Wild oats (wild oat [4]; [22])
9: Crabgrass plant response rating (crabgrass; [21]) | Plant response rating, Crabgrass (crabgrass; [22]) | Wild oats plant response rating (0 to 10 scale) (wild oat [4]; Preemergence, Rate 125 g/ha) | Wild oats plant response rating (wild oat [4]; [18]) | Wild oats plant response rating (wild oat [4]; [19])
6: Plant response rating, Wheat (wheat; [22])
85: Plant response rating, Blackgrass (blackgrass; [23]) | Plant response rating, Blackgrass (blackgrass; [16]) | Plant response rating, Blackgrass (blackgrass; Rate 250 g/ha, 0 to 100 scale)
8: Crabgrass plant response rating (crabgrass; [20]) | Wild oats plant response rating (wild oat [4]; [9])
50: Plant response rating, Wild oat (wild oat [1]; [16]) | Plant response rating, Barley (winter) (winter barley; [23])
5: Crabgrass plant response rating (crabgrass; [9]) | Crabgrass plant response rating (0 to 10 scale) (crabgrass; Preemergence, Rate 125 g/ha) | Soybean plant response rating (soybean; [19]) | Wheat plant response rating (wheat; [18])
